How the values were obtained:
[1] = system: RNAse-aggregated proteins from human neurons; assay: RNA-mediated re-folding of RNAse-aggregated proteins; type: biochemical; conditions: for protein solubilising effect of G-quadruple-forming and non-forming oligos: RNAse aggregated proteins from human neurons, aggregated proteins quantified
Protocol: Proteins were isolated from neuronal lysate by RNAse A/T1 treatment and centrifugation. Pelleted proteins were dissolved in 50 μl of denaturation buffer (20 mM Tris-HCl pH 7.5, 6 M Guanidine hydrochloride, 1% Triton X-100, 20 mM DTT) and sonicated for 5 min at room temperature. […] Dialysis was performed against 600 ml PBS buffer at 4° C. overnight after which the PBS was replaced with fresh PBS (400 ml) and the container placed in a water bath and kept at 37° C. for 1 h. The dialysed samples were transferred to 1.5 ml tubes and the volume adjusted to 100-200 μl with PBS. 7.5-10% of this was taken as Input. Precipitated proteins (Pel 1) were pelleted by centrifugation at 21.000×g for 10 min at +4° C., washed twice in RIPA buffer and processed for SDS-PAGE as before. 7.5-10% of the supernatants was saved (Sup 1) and the remaining volume was either divided into two new tubes supplemented with 0.5 μl vehicle or 0.5 μl RNAse A/T1 or the whole sample placed in one tube and treated with 0.5 μl RNAse A/T1. All samples were incubated at 37° C. for one hour and centrifuged as before. Pelleted proteins (P2) were washed as before and dissolved in SDS/Urea and sonicated. Equal volumes of each fraction were separated on SDS-PAGE gels and then either stained with coomassie or transferred to membranes for western blot analysis. RNA was isolated from cell lysates and purified ribosomes with Trizol LS (Life Technologies) according to the manufacturer's instructions. Ribosomes were isolated from Jurkat T-cells. RNA depleted for rRNA was isolated from the upper two thirds of the supernatant (after pelleting of ribosomes and five times dilution in water) with acid phenol (Life Technologies) followed by EtOH precipitation. RNA from intact cells was isolated with Isol-RNA Lysis Reagent (5 PRIME), according to the manufacturer's instructions. All RNA samples were dissolved in TE (10 mM Tris-HCl pH 8.0, 1 mM EDTA). RNA was analysed by 1.5% agarose or 6% PAGE/8M Urea gel electrophoresis and visualised with Ethidium Bromide. […]

[2] = system: cell or tissue lysate treated with RNAse A/T1; assay: Sodium orthovanadate: impact on RNAse-induced protein aggregation
Protocol: Cell or tissue lysate was prepared as described above. Lysate (200 μg at 2 μg/ul) is then treated with a mixture of RNAse A and T1 (A/T1), and incubated with increasing concentrations of Sodium Orthovanadate for one hour at 37° C. Aggregated proteins were isolated by centrifugation (21.000×g) at 4° C. for 20 min, washed twice in 500 μl RIPA buffer and then dissolved in 12 μl 6M Guanidine Hydrochloride, 20 mM Tris-HCl pH 7.5 by sonication for 5 min at room temperature. The amount of protein in 5 μl of this solution was then determined by using the BCA Kit (Thermo Scientific) according to the manufacturer's protocol. Data were expressed in arbitrary units (AU) as a fraction of the amount aggregated proteins (P1)/the amount of protein in the Input, and represent mean±s.d, n=2. […] The experiment was repeated with 50 μM SO and increasing concentrations of RNAse A/T1.

[3] = system: aggregated proteins from Jurkat T-cells; assay: Two-step refolding of proteins with small molecules or synthetic DNA/RNA; conditions: increasing concentrations
lysate from mouse cortex = assay: Ribonucleoside vanadyl: impact on protein aggregation; type: biochemical; conditions: 10 mM, 1 hour at 37° C., coomassie SDS-PAGE
[4] = system: Huntingtin (HTT), FUS and TARDBP in Jurkat cell lysates; type: biochemical, human; conditions: 15 min treatment, then 1 hour at 37° C.
[5] = system: amyloid-β, tau (MAPT), α-synuclein (SNCA), TARDBP (TDP-43), FUS, HTT, PrP, HNRNPA1, actin, NF-H in human neuronal lysates

For “18S 1129-69: predicted G4-forming ssDNA oligo derived from human 18S ribosomal RNA, 40 nt”, the “protein solubilising effect of G-quadruple-forming and non-forming oligos” value [1] was “can solubilise the proteins”.

In the case of `[Na+].[Na+].[Na+].[O]=[V]([O-])([O-])[O-]` [Sodium orthovanadate], the “background protein aggregation in lysate” value [2] is reported as “prevents any background protein aggregation”, the “inhibition of RNAse mediated protein aggregation” value ([2]; added to cell or tissue lysate together with RNAses, 1 hour at 37° C., e.g. TDP-43 and huntingtin) is reported as “completely inhibit aggregation of the proteins” and the “prevention of protein aggregation after refolding (BCA assay)” value [3] is reported as “can mimic RNA/DNA in preventing protein aggregation after refolding”.

In the case of “No 4G 1129-69: oligo with same nucleotides as 18S 1129 in an order not predicted to form G-quadruples (DNA TTAAGGGCATCTGATGCGGCGCGTGACGCGGCGCTAAGTG; DNA, backbone not given here)”, the “protein solubilising effect of G-quadruple-forming and non-forming oligos” value [1] is reported as “much less efficient”.

For Ribonucleoside vanadyl, the “protein aggregation in lysate in the absence of exogenous RNAse” value (lysate from mouse cortex) was “causes substantial protein aggregation” and the “protein aggregation in lysate in the absence of exogenous RNAse” value (lysate from mouse cortex; listed as Riobonucleoside vanadyl (VA)) was “causes protein aggregation”.

With heparin the “re-folding / solubilisation of RNAse-aggregated proteins (global protein profile)” value ([1]; denatured in 6M guanidine hydrochloride, dialysed, same amount in weight of nucleic acid or heparin) was “neither yeast tRNA nor heparin could substitute for the solubilising capacity of total human RNA”.

B1: immobilised RNAse A: biotinylated RNAse A coupled to magnetic strepavidine beads (protein, UniProt P61823 27-150, looked up)
Ribonuclease pancreatic: KETAAAKFERQHMDSSTSAASSSNYCNQMMKSRNLTKDRCKPVNTFVHESLADVQAVCSQKNVACKNGQTNCYQSYSTMSITDCRETGSSKYPNCAYKTTQANKHIIVACEGNPYVPVHFDASV
modifications: biotinylated, coupled to streptavidin magnetic beads
For B1, the “aggregation of HTT, FUS and TARDBP after mixing 10% treated lysate with non-treated lysate (western blot)” value [4] was “increase in aggregation”.

B2: RNase A: ribonuclease cleaving single-stranded RNA after C and U, from Sigma (protein)
chain: B1 Ribonuclease pancreatic
B2 was tested, and the “proteins most efficiently precipitated by the RNase (western blot)” value [5] was “TARDBP, HTT and PrP”.

B3: RNase T1: ribonuclease cleaving single-stranded RNA after G (protein, UniProt P00651 27-130, looked up)
Guanyl-specific ribonuclease …: ACDYTCGSNCYSSSDVSTAQAAGYQLHEDGETVGSNSYPHKYNNYEGFDFSVSSPYYEWPILSSGDVYSGGSPGADRVVFNENNQLAGVITHTGASGNNFVECT
For B3, the “proteins most efficiently precipitated by the RNase (western blot)” value [5] was “FUS”.

From patent US20170202878A1, “Method for Preventing or Treating a Protein Aggregation Disease” (Queen Mary University of London, priority 2014, published 2017)
